Reference: patent publication US20230210831A1, “CHRONIC KIDNEY DISEASE TREATMENT OR PREVENTION METHOD” (Japan Tobacco Inc., priority 2019, published 2023)

Assays:
glucose-loaded SD rats [1] = assay: OGTT (oral glucose tolerance test), Test Example 2; assay type: in vivo, rat; settings: 1, 3, or 10 mg/kg orally 16 hours before glucose load; male SD rats; compared to vehicle
Experimental: Vehicle (0.5% methylcellulose solution) or Compound 1 (1, 3, or 10 mg/kg) suspended in a 0.5% methylcellulose solution was orally administered in 5 mL/kg to an about 4-hour-fasted male SD rat (8-week old, Nihon Charles River K.K., 6 cases for each group).
Statistical analyses were based on Steel’s multiple test. The significance level was two-sided 5%.

SDT fatty rats = assay: Assessment of renal protective effect (GFR in SDT fatty rats); assay type: in vivo, rat; settings: 2 mg/kg orally once a day, 16 weeks; male SDT fatty rats
Experimental: Vehicle (0.5% methyl cellulose solution), Compound 1 (2 mg/kg), or dapagliflozin (0.3 mg/kg) was orally administered once a day to male SDT fatty rats (7-week old, CLEA Japan, Inc.); and as a normal control, vehicle was orally administered once a day to male SD rats (7-week old, CLEA Japan, Inc.). 16 Weeks after the administration, GFR (mL/min/100 g B.W.) was measured with a transdermal GFR monitor (MediBeacon). For statistical analysis, Student’s test was conducted between the vehicle-administered group of SD rats and the vehicle-administered group of SDT fatty rats. Dunnett’s multiple test was conducted for the Compound 1 and dapagliflozin groups to the vehicle group of SDT fatty rats. The significance level was two-sided 5%.

⅚-kidney-removed rats = assay: Assessment of renal protective effect 2 (⅚-kidney-removed rats); assay type: in vivo, rat; settings: 2 mg/kg/day mixed with feed, vs vehicle-administered group
Experimental: 7-Week old male Wistar rats (Japan SLC, Inc.) were treated by removing ⅔ of the left kidney under isoflurane anesthesia and then removing the whole right kidney one week later to prepare ⅚-kidney-removed rats. Compound 1 (2 mg/kg/day) mixed with feed was orally administered to the rats from the age of 9 weeks. As a normal control, male Wistar rats at the same age were set as a sham group. […] For statistical analysis, Student’s test was conducted between the vehicle-administered group and the Compound 1-administered group. […] For statistical analysis, Student’s test or Aspin-Welch was conducted.

glucose-loaded SD rats [2] = assay: OGTT (oral glucose tolerance test), Test Example 3; assay type: in vivo, rat; settings: 3 mg/kg orally 16 hours before glucose load; male SD rats; compared to vehicle
Experimental: Vehicle (0.5% methylcellulose solution), or Compound 1, Compound A, or Compound B (3 mg/kg each) suspended in a 0.5% methylcellulose solution was orally administered in 5 mL/kg to an about 4-hour-fasted male SD rat (8-week old, Nihon Charles River K.K., 5 cases for each group).
Statistical analyses were based on Dunnett’s multiple group test. The significance level was two-sided 5%.

human SGLT1 = molecular target: T1, human SGLT1 (Homo sapiens, UniProt P13866); assay: Assessment of SGLT1 inhibitory activity (14C-AMG uptake in human SGLT1-stably-expressing CHO-K1 cells); assay type: cell-based
T1 construct: expressed in transfected cells; PCR template pCMV6-hSGLT1 (OriGene)
T1 sequence (P13866 1-664): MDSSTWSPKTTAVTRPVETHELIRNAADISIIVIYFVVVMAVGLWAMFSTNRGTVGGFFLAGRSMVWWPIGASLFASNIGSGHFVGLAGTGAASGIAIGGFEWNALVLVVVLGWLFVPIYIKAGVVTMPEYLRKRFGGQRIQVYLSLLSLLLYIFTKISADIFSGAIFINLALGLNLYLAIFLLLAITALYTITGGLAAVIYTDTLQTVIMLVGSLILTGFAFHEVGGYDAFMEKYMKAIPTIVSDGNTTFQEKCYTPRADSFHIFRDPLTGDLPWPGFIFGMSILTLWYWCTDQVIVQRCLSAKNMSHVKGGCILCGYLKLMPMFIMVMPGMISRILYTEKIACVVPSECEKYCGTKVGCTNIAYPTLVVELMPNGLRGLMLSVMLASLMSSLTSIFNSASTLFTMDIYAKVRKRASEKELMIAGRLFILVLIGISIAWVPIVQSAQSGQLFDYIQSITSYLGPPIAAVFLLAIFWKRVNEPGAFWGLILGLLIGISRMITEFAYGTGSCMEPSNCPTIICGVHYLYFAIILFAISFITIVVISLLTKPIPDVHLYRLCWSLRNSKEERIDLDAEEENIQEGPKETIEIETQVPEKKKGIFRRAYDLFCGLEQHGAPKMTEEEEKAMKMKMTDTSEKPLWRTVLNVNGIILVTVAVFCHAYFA
Experimental: SGLT1 inhibitory activities of test compounds (IC50 values) were calculated based on the amount of intracellular uptake of labelled α-methyl-D-glucopyranoside (^14C-AMG) transported by SGLT1.
A DNA fragment containing human SGLT1 was amplified by PCR (Polymerase Chain Reaction) using pCMV6-hSGLT1 (OriGene) as a template. In the human SGLT1, NheI recognition and cleavage sequence was added to the upstream of Kozac consensus sequence derived from a vector, and a stop codon, TAG, and SalI recognition and cleavage sequence were added to the immediate downstream of the protein-translating region of human SGLT1. […]
Human SGLT1-stably-expressing cell lines were seeded at 5 x 10^4 cells/well on BioCoat™ Poly-D-Lysine 96 well plate with Lid (Becton, Dickinson and Company) and cultured at 37° C. under 5% CO2 overnight. […] In the assessment for the uptake ability of 14C-AMG, the total amount of the cell lysate was transferred to OptiPlate 96 (Perkin-Elmer) with 100 µL/well of MicroScint-40 (Perkin-Elmer) dispensed and ^14 C of CPM was measured with TOPCOUNT NXT (Perkin-Elmer).
Data was calculated by deducting the average value of CPM for blank well from the average value of CPM for each well treated. An inhibition rate for each test compound in each concentration was calculated from the following equation: […]

Compound: C[C@H]1C(=O)NC[C@@H]1C(=O)Nc1cc(-c2cc(F)cc(OC(C)(C)C)c2)n(C(F)(F)F)n1 [Compound 1, (3R,4R)-N-(5-(3-(tert-butoxy)-5-fluorophenyl)-1-(trifluoromethyl)-1H-pyrazol-3-yl)-4-methyl-5-oxopyrrolidine-3-carboxamide]
- blood glucose level after the glucose load (Δ AUC to 120 minutes, % of Vehicle) (glucose-loaded SD rats [1]): significantly reduced
- GFR (SDT fatty rats): inhibited the increase of GFR
- protein quantity in the urine (⅚-kidney-removed rats): lower than those of the vehicle-administered group
- urea nitrogen level (⅚-kidney-removed rats): significantly lower than those of the vehicle-administered group
- blood glucose level after the glucose load (Δ AUC to 120 minutes, % of Vehicle) (glucose-loaded SD rats [2]): significantly reduced
- SGLT1 inhibitory activity (human SGLT1): confirmed to have the SGLT1 inhibitory activity
